Test results reported in patent US12577206B2 (BRISTOL-MYERS SQUIBB COMPANY, priority 2020, dated 2026).

What was measured:
human FPR2 = biological target: T1, human FPR2 (Homo sapiens, UniProt P25090); assay: FPR2 cyclic adenosine monophosphate (cAMP) assay; assay type: cell-based; conditions: CHO cells overexpressing human FPR2; forskolin 5 μM; inhibition of cAMP production; HTRF; read-out: hFPR2 cAMP2 EC50
T1 sequence (P25090 1-351): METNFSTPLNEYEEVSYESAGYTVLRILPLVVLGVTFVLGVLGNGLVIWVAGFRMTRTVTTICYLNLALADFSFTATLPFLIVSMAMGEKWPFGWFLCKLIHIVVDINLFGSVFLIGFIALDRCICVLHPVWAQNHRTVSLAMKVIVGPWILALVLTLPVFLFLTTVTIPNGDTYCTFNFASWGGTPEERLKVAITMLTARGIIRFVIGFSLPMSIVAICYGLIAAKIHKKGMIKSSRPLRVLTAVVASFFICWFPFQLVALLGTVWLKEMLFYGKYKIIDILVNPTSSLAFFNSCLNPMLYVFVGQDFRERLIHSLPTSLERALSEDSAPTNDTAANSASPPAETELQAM
Procedure, shortened: (§1)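 CHO cells overexpressing human FPR1 (4,000/well) or FPR2 (2,000/well) were incubated 30 min at room temperature with compound (0.020 nM to 100 μM, 1% DMSO), IBMX 200 μM, and forskolin at 10 μM (FPR1) or 5 μM (FPR2), all final. HTRF cAMP read-out; inhibition fitted by 4-parameter logistic equation.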

human FPR1 = biological target: T2, human FPR1 (Homo sapiens, UniProt P21462); assay: FPR1 cyclic adenosine monophosphate (cAMP) assay; assay type: cell-based; conditions: CHO cells overexpressing human FPR1; forskolin 10 μM; inhibition of cAMP production; HTRF; read-out: hFPR1 cAMP2 EC50
T2 sequence (P21462 1-350): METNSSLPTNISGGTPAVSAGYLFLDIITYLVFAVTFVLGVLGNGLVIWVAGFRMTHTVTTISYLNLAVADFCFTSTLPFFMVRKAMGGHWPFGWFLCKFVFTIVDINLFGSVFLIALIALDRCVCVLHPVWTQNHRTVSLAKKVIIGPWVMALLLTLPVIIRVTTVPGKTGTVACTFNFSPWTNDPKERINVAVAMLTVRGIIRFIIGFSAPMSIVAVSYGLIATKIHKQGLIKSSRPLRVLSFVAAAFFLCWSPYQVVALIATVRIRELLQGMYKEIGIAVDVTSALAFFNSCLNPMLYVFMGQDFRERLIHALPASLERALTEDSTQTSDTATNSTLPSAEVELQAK
Procedure, shortened: as §1

SMILES | EC50 (human FPR2) | EC50 (human FPR1)
COc1cc(F)c(-c2c(NC(=O)c3ccc(OC(F)(F)F)cc3)c(=O)n(-c3ccccc3Cl)n2C)c(F)c1 [Example 172, N-[2-(2-chlorophenyl)-5-(2,6-difluoro-4-methoxyphenyl)-1-methyl-3-oxo-2,3-dihydro-1H-pyrazol-4-yl]-4-(trifluoromethoxy)benzamide] | 13 nM | 3300 nM
COc1cc(F)c(-c2c(NC(=O)c3ccc(OC(F)F)cc3)c(=O)n(-c3nc(N4CC(F)(F)C4)ccc3Cl)n2C)c(F)c1 [Example 145, N-{2-[3-chloro-6-(3,3-difluoroazatidin-1-yl)pyridin-4-methoxyphenyl)-1-methyl-3-oxo-2,3-dihydro-1H-pyrazol-4-yl}-4-(difluoromethoxy)benzamide] | 3 nM | 2900 nM
COc1cc(F)c(-c2c(NC(=O)c3ccc(OC(F)F)cc3)c(=O)n(-c3ccc(C)cn3)n2C)c(F)c1 [Example 49, N-[5-(2,6-difluoro-4-methoxyphenyl)-1-methyl-2-(5-methylpyridin-2-yl)-3-oxo-2,3-dihydro-1H-pyrazol-4-yl]-4-(difluoromethoxy)benzamide] | 55 nM | 6800 nM
CNc1ccc(C(F)(F)F)c(-n2c(=O)c(NC(=O)c3ccc(OC(F)F)cc3)c(-c3c(F)cc(OC)cc3F)n2C)n1 [Example 227, N-[5-(2,6-difluoro-4-methoxyphenyl)-1-methyl-2-[6-(methylamino)-3-(trifluoromethyl)pyridin-2-yl]-3-oxo-2,3-dihydro-1H-pyrazol-4-yl]-4-(difluoromethoxy)benzamide] | 3 nM | > 5000 nM
COc1cc(F)c(-c2c(NC(=O)c3ccc(OC(F)F)cc3)c(=O)n(-c3nc(C4CC4)ccc3Br)n2C)c(F)c1 [Example 160, N-[2-(3-bromo-6-cyclopropylpyridin-2-yl)-5-(2,6-difluoro-4-methoxyphenyl)-1-methyl-3-oxo-2,3-dihydro-1H-pyrazol-4-yl]-4-(difluoromethoxy)benzamide] | 3 nM | > 10000 nM
COc1cc(F)c(-c2c(NC(=O)c3ccc(OC(F)F)cc3)c(=O)n(-c3ncccc3Cl)n2C)c(F)c1 [Example 197, N-[2-(3-chloropyridin-2-yl)-5-(2,6-difluoro-4-methoxyphenyl)-1-methyl-3-oxo-2,3-dihydro-1H-pyrazol-4-yl]-4-(difluoromethoxy)benzamide] | 16 nM | > 10000 nM
COc1cc(F)c(-c2c(NC(=O)c3ccc(OC(F)F)cc3)c(=O)n(-c3cc(Cl)ccc3Cl)n2C)c(F)c1 [Example 176, N-[2-(2,5-dichlorophenyl)-5-(2,6-difluoro-4-methoxyphenyl)-1-methyl-3-oxo-2,3-dihydro-1H-pyrazol-4-yl]-4-(difluoromethoxy)benzamide] | 9 nM | > 10000 nM
COc1cc(F)c(-c2c(NC(=O)c3ccc(OC(F)F)cc3)c(=O)n(-c3nc(NC4CC4)ccc3C(F)(F)F)n2C)c(F)c1 [Example 251, N-{2-[6-(cyclopropylamino)-3-(trifluoromethyl)pyridin-2-yl]-5-(2,6-difluoro-4-methoxyphenyl)-1-methyl-3-oxo-2,3-dihydro-1H-pyrazol-4-yl}-4-(difluoromethoxy)benzamide] | 2 nM | > 10000 nM
COCCOc1ccc(C(F)(F)F)c(-n2c(=O)c(NC(=O)c3ccc(OC(F)F)cc3)c(-c3c(F)cc(OC)cc3F)n2C)n1 [Example 278, N-[5-(2,6-difluoro-4-methoxyphenyl)-2-[6-(2-methoxyethoxy)-3-(trifluoromethyl)pyridin-2-yl]-1-methyl-3-oxo-2,3-dihydro-1H-pyrazol-4-yl]-4-(difluoromethoxy)benzamide] | 2 nM | > 10000 nM

Continued by falling EC50 (human FPR2), values first:

EC50 (human FPR2) | EC50 (human FPR1) | SMILES
230 nM | > 10000 nM | COc1cc(F)c(-c2c(NC(=O)c3ccc(OC(F)F)cc3)c(=O)n(CCO)n2C)c(F)c1 [Example 58, N-[5-(2,6-difluoro-4-methoxyphenyl)-2-(2-hydroxyethyl)-1-methyl-3-oxo-2,3-dihydro-1H-pyrazol-4-yl]-4-(difluoromethoxy)benzamide]
38 nM | 510 nM | Cn1c(-c2ccc(Cl)cc2)c(NC(=O)c2ccc(OC(F)F)cc2)c(=O)n1-c1ncccc1C(F)(F)F [Example 249, N-[5-(4-chlorophenyl)-1-methyl-3-oxo-2-[3-(trifluoromethyl)pyridin-2-yl]-2,3-dihydro-1H-pyrazol-4-yl]-4-(difluoromethoxy)benzamide]
30 nM | > 10000 nM | COc1cc(F)c(-c2c(NC(=O)c3ccc(Cl)cc3)c(=O)n(-c3ccc(F)cc3)n2C)c(F)c1 [Example 15, 4-chloro-N-[5-(2,6-difluoro-4-methoxyphenyl)-2-(4-fluorophenyl)-1-methyl-3-oxo-2,3-dihydro-1H-pyrazol-4-yl]benzamide]
22 nM | > 10000 nM | COc1cc(F)c(-c2c(NC(=O)c3ccc(OC(F)F)cc3)c(=O)n(-c3cccc(C)n3)n2C)c(F)c1 [Example 46, N-[5-(2,6-difluoro-4-methoxyphenyl)-1-methyl-2-(6-methylpyridin-2-yl)-3-oxo-2,3-dihydro-1H-pyrazol-4-yl]-4-(difluoromethoxy)benzamide]
12 nM | 2000 nM | COc1cc(F)c(-c2c(NC(=O)c3ccc(OC(F)F)cc3)c(=O)n(-c3cccc(N4CC(C)(O)C4)n3)n2C)c(F)c1 [Example 312, N-[5-(2,6-difluoro-4-methoxyphenyl)-2-[6-(3-hydroxy-3-methylazetidin-1-yl)pyridin-2-yl]-1-methyl-3-oxo-2,3-dihydro-1H-pyrazol-4-yl]-4-(difluoromethoxy)benzamide]
8 nM | 1900 nM | COc1cc(F)c(-c2c(NC(=O)c3ccc(OC(F)F)cc3)c(=O)n(-c3cccc(C)c3C)n2C)c(F)c1 [Example 3, N-[5-(2,6-difluoro-4-methoxyphenyl)-2-(2,3-dimethylphenyl)-1-methyl-3-oxo-2,3-dihydro-1H-pyrazol-4-yl]-4-(difluoromethoxy)benzamide]
8 nM | 2500 nM | COc1cc(F)c(-c2c(NC(=O)c3ccc(OC(F)(F)F)cc3)c(=O)n(-c3cc(C)cc(C)n3)n2C)c(F)c1 [Example 66, N-[5-(2,6-difluoro-4-methoxyphenyl)-2-(4,6-dimethylpyridin-2-yl)-1-methyl-3-oxo-2,3-dihydro-1H-pyrazol-4-yl]-4-(trifluoromethoxy)benzamide]
8 nM | > 10000 nM | COc1cc(OCC2CCCO2)nc(-n2c(=O)c(NC(=O)c3ccc(OC(F)F)cc3)c(-c3c(F)cc(OC)cc3F)n2C)c1 (stereo not drawn) [Example 339, N-(5-(2,6-Difluoro-4-methoxyphenyl)-2-(4-methoxy-6-((tetrahydrofuran-2-yl)methoxy)pyridin-2-yl)-1-methyl-3-oxo-2,3-dihydro-1H-pyrazol-4-yl)-4-(difluoromethoxy)benzamide]
5 nM | > 10000 nM | COc1cc(F)c(-c2c(NC(=O)c3ccc(OC(F)F)cc3)c(=O)n(-c3nc(N4CC(C)(O)C4)ccc3Cl)n2C)c(F)c1 [Example 307, N-{2-[3-chloro-6-(3-hydroxy-3-methylazetidin-1-yl)pyridin-2-yl]-5-(2,6-difluoro-4-methoxyphenyl)-1-methyl-3-oxo-2,3-dihydro-1H-pyrazol-4-yl}-4-(difluoromethoxy)benzamide]
5 nM | > 10000 nM | COc1cc(F)c(-c2c(NC(=O)c3ccc(OC(F)F)cc3)c(=O)n(-c3nc(N4CC(C)(O)C4)ccc3C#N)n2C)c(F)c1 [Example 311, N-{2-[3-cyano-6-(3-hydroxy-3-methylazetidin-1-yl)pyridin-2-yl]-5-(2,6-difluoro-4-methoxyphenyl)-1-methyl-3-oxo-2,3-dihydro-1H-pyrazol-4-yl}-4-(difluoromethoxy)benzamide]
5 nM | > 10000 nM | CNc1ccc(Cl)nc1-n1c(=O)c(NC(=O)c2ccc(OC(F)F)cc2)c(-c2c(F)cc(OC)cc2F)n1C [Example 215, N-{2-[6-chloro-3-(methylamino)pyridin-2-yl]-5-(2,6-difluoro-4-methoxyphenyl)-1-methyl-3-oxo-2,3-dihydro-1H-pyrazol-4-yl}-4-(difluoromethoxy)benzamide]
3 nM | 3400 nM | COc1cc(N2CC[C@H](O)C2)nc(-n2c(=O)c(NC(=O)c3ccc(OC(F)F)cc3)c(-c3c(F)cc(OC)cc3F)n2C)c1 [Example 97, N-[5-(2,6-difluoro-4-methoxyphenyl)-2-{6-[(3S)-3-hydroxypyrrolidin-1-yl]-4-methoxypyridin-2-yl}-1-methyl-3-oxo-2,3-dihydro-1H-pyrazol-4-yl]-4-(difluoromethoxy)benzamide]
